Values quoted from earlier work, collected in US4983400A, “Controlled release combination of carbidopa/levodopa” (priority 1989, dated 1991).

What was measured:
[1] = in vivo

## N[C@@H](Cc1ccc(O)c(O)c1)C(=O)O [levodopa]
[1]
  adverse reactions: severe adverse reactions, especially emesis, were experienced
human, in vivo, iv
  effect of high protein meals on plasma levodopa levels: without affecting plasma levodopa levels
intravenous
  motor oscillations: reduces motor oscillations
intravenous, high protein meals
  effect of high protein meals on response: decline in response
intravenous, some patients
  residual symptoms at optimal response: either tremor and bradykinesia or mobility with dyskinesia
